From ChEMBL document CHEMBL3286226, “Discovery of thienopyrimidine-based FLT3 inhibitors from the structural modification of known IKKβ inhibitors” (Bioorg Med Chem Lett, 2014)

What was measured:
[1] = tested on: RAW264.7; assay: cells; details: Mus musculus
Description: Antiinflammatory activity against mouse RAW264.7 cells assessed as reduction of LPS-induced NO production

[2] = molecular target: T1, Inhibitor of nuclear factor kappa-B kinase subunit beta (Homo sapiens, UniProt O14920)
T1 sequence (O14920 whole entry): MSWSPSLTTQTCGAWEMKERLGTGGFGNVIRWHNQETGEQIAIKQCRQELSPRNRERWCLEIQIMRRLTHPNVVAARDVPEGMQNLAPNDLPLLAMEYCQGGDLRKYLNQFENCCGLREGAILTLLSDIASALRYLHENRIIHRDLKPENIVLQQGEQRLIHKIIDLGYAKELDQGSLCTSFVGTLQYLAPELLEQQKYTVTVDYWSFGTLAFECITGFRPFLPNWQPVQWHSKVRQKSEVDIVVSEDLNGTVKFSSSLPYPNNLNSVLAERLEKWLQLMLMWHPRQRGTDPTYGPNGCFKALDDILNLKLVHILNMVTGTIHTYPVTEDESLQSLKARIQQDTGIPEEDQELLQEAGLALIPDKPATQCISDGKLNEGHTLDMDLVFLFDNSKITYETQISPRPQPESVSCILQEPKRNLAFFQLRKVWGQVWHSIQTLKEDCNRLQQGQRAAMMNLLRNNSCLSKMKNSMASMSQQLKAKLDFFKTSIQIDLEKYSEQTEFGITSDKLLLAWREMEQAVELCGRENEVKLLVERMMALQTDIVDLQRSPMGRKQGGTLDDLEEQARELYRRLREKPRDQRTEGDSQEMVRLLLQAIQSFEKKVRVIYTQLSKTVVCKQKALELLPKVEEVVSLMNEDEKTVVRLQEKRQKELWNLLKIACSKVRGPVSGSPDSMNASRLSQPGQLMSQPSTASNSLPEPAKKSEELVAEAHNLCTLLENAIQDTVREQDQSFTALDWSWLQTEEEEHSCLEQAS
Description: (§1) Inhibition of IKKbeta kinase (unknown origin) by Radioisotope system

[3] = molecular target: T1, Inhibitor of nuclear factor kappa-B kinase subunit beta; remark: listed apart in the source
Description: Inhibition of IKKbeta kinase (unknown origin) by Lance ULight system

[4] = tested on: RAW264.7; assay: cells; details: Mus musculus; remark: listed apart in the source
Description: (§2) Antiinflammatory activity against mouse RAW264.7 cells assessed as reduction of LPS-induced TNF-alpha production

[5] = tested on: RAW264.7
Description: as §2

[6] = molecular target: T2, Receptor-type tyrosine-protein kinase FLT3 (Homo sapiens, UniProt P36888)
T2 sequence (P36888 whole entry): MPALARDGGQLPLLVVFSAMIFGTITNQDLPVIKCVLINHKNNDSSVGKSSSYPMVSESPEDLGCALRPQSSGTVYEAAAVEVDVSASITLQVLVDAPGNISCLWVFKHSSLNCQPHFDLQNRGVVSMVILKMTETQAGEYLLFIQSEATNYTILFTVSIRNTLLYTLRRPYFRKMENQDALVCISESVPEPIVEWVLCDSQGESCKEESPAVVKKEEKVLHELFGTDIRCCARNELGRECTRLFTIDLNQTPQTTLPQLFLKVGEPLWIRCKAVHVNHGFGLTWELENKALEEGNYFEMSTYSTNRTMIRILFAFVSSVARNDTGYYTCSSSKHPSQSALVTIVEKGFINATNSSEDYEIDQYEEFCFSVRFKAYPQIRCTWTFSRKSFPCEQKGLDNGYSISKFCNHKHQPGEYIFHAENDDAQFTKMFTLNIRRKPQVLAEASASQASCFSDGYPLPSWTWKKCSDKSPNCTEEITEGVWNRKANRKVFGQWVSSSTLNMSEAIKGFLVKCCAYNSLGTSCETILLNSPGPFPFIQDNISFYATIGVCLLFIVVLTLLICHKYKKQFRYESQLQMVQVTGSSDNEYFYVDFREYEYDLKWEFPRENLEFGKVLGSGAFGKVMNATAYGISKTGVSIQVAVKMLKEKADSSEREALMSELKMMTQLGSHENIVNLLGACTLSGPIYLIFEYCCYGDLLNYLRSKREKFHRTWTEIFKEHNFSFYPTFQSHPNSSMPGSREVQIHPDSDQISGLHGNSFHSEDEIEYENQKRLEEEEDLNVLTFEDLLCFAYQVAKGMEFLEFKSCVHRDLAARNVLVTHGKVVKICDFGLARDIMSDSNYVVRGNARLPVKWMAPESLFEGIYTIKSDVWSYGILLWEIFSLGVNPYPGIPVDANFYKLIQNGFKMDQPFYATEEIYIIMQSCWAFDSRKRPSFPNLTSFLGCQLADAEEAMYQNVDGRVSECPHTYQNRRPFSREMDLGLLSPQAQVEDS
Description: Inhibition of FLT3 kinase (unknown origin)

[7] = molecular target: Mitogen-activated protein kinase 12 (Homo sapiens) (UniProt P53778); assay: Inhibition of human SAPK3 assessed as residual activity at 10 uM relative to control
[8] = molecular target: Ribosomal protein S6 kinase alpha-5 (Homo sapiens) (UniProt O75582); assay: Inhibition of human MSK1 assessed as residual activity at 10 uM relative to control
[9] = molecular target: Receptor-type tyrosine-protein kinase FLT3 (Homo sapiens) (UniProt P36888); assay: Inhibition of human Flt3 assessed as residual activity at 10 uM relative to control
[10] = molecular target: Mitogen-activated protein kinase 9 (Homo sapiens) (UniProt P45984); assay: Inhibition of human JNK2alpha2 assessed as residual activity at 10 uM relative to control
[11] = molecular target: Tyrosine-protein kinase Lck (Homo sapiens) (UniProt P06239); assay: Inhibition of human Lck assessed as residual activity at 10 uM relative to control
[12] = molecular target: Non-receptor tyrosine-protein kinase TYK2 (Homo sapiens) (UniProt P29597); assay: Inhibition of human TYK2 assessed as residual activity at 10 uM relative to control
[13] = molecular target: Dual specificity mitogen-activated protein kinase kinase 4 (Mus musculus) (UniProt P47809); assay: Inhibition of mouse MKK4 assessed as residual activity at 10 uM relative to control
[14] = molecular target: Tyrosine-protein kinase Lyn (Homo sapiens) (UniProt P07948); assay: Inhibition of human Lyn assessed as residual activity at 10 uM relative to control
[15] = molecular target: Tyrosine-protein kinase JAK3 (Homo sapiens) (UniProt P52333); assay: Inhibition of human JAK3 assessed as residual activity at 10 uM relative to control
[16] = molecular target: Mitogen-activated protein kinase 11 (Homo sapiens) (UniProt Q15759); assay: Inhibition of human SAPK2beta assessed as residual activity at 10 uM relative to control
[17] = molecular target: Mitogen-activated protein kinase 13 (Homo sapiens) (UniProt O15264); assay: Inhibition of human SAPK4 assessed as residual activity at 10 uM relative to control
[18] = molecular target: Tyrosine-protein kinase BTK (Homo sapiens) (UniProt Q06187); assay: Inhibition of human BTK assessed as residual activity at 10 uM relative to control
[19] = species on record: Homo sapiens; assay: Inhibition of human PKA assessed as residual activity at 10 uM relative to control
[20] = molecular target: Dual specificity mitogen-activated protein kinase kinase 7 (Homo sapiens) (UniProt O14733); assay: Inhibition of human MKK7beta assessed as residual activity at 10 uM relative to control
[21] = molecular target: Inhibitor of nuclear factor kappa-B kinase subunit alpha (Homo sapiens) (UniProt O15111); assay: Inhibition of human IKKalpha assessed as residual activity at 10 uM relative to control
[22] = molecular target: Tyrosine-protein kinase JAK1 (Homo sapiens) (UniProt P23458); assay: Inhibition of human JAK1 assessed as residual activity at 10 uM relative to control
[23] = molecular target: Rho-associated protein kinase 2 (Homo sapiens) (UniProt O75116); assay: Inhibition of human ROCK-2 assessed as residual activity at 10 uM relative to control
[24] = molecular target: Inhibitor of nuclear factor kappa-B kinase subunit beta (Homo sapiens) (UniProt O14920); assay: Inhibition of human IKKbeta assessed as residual activity at 1 uM relative to control
[25] = molecular target: Dual specificity mitogen-activated protein kinase kinase 6 (Homo sapiens) (UniProt P52564); assay: Inhibition of human MKK6 assessed as residual activity at 10 uM relative to control
[26] = molecular target: MAP kinase-activated protein kinase 2 (Homo sapiens) (UniProt P49137); assay: Inhibition of human MAPKAP-K2 assessed as residual activity at 10 uM relative to control
[27] = molecular target: Mitogen-activated protein kinase 14 (Homo sapiens) (UniProt Q16539); assay: Inhibition of human SAPK2alpha assessed as residual activity at 10 uM relative to control
[28] = molecular target: Mitogen-activated protein kinase 8 (Homo sapiens) (UniProt P45983); assay: Inhibition of human JNK1alpha1 assessed as residual activity at 10 uM relative to control
[29] = molecular target: T1, Inhibitor of nuclear factor kappa-B kinase subunit beta; remark: listed apart in the source
Description: as §1

Chain of Ribosomal protein S6 kinase alpha-5 (Homo sapiens) (O75582 whole entry, looked up): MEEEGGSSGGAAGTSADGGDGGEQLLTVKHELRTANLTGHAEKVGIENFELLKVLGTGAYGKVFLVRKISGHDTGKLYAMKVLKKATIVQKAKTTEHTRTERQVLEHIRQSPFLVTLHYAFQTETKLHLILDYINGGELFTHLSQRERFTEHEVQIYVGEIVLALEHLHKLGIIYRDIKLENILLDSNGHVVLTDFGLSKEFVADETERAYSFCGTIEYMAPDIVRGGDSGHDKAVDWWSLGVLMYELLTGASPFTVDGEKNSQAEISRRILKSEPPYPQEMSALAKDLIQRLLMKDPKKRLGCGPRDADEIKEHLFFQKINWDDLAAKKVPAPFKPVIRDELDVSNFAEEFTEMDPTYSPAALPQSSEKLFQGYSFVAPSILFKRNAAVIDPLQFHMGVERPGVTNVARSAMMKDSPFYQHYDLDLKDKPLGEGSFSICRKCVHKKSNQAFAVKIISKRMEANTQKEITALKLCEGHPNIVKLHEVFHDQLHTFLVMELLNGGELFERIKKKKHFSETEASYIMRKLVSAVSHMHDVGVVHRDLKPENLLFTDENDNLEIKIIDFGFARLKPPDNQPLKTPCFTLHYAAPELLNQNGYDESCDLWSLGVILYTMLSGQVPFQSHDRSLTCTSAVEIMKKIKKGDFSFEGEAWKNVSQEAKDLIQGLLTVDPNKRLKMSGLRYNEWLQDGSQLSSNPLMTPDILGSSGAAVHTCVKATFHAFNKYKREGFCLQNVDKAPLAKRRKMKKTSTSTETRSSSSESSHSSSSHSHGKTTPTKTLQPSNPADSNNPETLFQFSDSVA
Chain of Non-receptor tyrosine-protein kinase TYK2 (Homo sapiens) (P29597 whole entry): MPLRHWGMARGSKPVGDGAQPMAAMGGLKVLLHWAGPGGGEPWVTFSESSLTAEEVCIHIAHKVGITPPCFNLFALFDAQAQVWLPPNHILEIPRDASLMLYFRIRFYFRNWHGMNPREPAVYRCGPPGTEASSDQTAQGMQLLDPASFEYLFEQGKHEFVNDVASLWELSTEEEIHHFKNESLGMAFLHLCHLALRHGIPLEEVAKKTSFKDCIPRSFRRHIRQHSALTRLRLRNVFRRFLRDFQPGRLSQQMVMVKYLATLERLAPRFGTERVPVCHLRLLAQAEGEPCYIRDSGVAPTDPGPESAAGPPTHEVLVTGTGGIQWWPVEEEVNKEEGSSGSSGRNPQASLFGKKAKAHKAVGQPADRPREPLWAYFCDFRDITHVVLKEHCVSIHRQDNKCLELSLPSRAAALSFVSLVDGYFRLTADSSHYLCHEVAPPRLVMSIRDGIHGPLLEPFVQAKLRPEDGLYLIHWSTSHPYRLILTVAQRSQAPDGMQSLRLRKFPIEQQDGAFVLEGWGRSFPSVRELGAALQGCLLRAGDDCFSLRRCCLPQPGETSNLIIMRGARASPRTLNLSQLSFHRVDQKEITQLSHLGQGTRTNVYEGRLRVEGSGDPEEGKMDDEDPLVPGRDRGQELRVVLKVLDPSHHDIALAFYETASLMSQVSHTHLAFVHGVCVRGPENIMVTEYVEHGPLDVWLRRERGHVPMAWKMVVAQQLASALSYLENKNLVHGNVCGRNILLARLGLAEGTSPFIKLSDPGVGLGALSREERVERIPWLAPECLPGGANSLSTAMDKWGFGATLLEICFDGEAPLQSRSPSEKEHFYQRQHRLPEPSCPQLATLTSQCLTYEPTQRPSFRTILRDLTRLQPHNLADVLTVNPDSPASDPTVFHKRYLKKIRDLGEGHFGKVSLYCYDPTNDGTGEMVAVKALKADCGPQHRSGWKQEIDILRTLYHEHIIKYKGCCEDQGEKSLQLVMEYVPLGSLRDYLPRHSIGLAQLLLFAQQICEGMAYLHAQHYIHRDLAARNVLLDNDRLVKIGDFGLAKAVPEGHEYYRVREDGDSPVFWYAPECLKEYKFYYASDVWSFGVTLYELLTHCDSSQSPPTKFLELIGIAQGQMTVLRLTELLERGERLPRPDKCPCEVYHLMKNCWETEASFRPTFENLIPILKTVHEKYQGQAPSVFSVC
Chain of MAP kinase-activated protein kinase 2 (Homo sapiens) (P49137 whole entry, looked up): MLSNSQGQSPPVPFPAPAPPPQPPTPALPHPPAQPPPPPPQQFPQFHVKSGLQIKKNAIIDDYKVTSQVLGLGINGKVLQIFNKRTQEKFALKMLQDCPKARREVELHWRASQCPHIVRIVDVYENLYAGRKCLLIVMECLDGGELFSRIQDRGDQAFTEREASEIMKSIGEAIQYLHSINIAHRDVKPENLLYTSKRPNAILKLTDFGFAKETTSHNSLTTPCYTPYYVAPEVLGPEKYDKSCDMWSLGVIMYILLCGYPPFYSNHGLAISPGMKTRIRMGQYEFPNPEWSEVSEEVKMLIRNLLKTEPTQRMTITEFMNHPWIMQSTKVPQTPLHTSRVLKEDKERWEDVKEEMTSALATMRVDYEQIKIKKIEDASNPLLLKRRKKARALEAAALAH
Chain of Tyrosine-protein kinase Lck (Homo sapiens) (P06239 2-509 limits assumed): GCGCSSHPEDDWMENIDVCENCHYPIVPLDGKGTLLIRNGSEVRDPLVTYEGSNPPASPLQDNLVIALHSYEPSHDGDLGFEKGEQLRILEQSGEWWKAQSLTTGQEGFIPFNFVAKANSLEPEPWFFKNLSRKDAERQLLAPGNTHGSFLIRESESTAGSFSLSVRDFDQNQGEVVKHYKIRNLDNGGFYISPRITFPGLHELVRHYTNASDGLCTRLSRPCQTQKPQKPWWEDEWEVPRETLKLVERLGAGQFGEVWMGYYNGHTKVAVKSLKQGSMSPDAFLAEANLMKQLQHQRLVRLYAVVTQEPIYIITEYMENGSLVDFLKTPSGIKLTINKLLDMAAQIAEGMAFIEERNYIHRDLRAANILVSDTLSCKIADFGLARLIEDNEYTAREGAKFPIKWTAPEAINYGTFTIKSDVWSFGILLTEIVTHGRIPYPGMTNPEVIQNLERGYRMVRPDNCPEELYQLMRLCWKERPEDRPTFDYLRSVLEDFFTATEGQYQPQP
Chain of Mitogen-activated protein kinase 9 (Homo sapiens) (P45984 whole entry, looked up): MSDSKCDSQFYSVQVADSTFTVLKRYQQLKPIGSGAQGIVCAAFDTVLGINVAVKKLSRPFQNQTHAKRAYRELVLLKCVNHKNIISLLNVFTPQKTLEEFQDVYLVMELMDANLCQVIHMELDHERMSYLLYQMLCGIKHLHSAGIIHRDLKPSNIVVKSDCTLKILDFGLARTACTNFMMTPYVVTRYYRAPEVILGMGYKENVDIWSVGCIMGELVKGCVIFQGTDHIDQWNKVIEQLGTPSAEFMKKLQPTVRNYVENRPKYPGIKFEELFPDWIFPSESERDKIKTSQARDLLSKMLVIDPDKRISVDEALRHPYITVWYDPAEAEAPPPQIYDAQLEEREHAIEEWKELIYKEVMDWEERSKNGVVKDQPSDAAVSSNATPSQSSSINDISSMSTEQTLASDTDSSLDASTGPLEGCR
Chain of Mitogen-activated protein kinase 11 (Homo sapiens) (Q15759 whole entry): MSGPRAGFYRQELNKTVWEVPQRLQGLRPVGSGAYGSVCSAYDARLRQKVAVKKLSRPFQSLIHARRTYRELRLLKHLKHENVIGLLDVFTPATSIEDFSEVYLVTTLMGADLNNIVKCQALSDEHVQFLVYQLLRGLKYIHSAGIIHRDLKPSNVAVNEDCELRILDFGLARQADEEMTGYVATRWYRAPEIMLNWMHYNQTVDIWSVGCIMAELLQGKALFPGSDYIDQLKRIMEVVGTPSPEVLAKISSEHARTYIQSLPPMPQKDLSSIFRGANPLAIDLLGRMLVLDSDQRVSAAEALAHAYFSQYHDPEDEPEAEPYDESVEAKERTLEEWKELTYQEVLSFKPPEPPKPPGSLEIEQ
Chain of Mitogen-activated protein kinase 12 (Homo sapiens) (P53778 whole entry): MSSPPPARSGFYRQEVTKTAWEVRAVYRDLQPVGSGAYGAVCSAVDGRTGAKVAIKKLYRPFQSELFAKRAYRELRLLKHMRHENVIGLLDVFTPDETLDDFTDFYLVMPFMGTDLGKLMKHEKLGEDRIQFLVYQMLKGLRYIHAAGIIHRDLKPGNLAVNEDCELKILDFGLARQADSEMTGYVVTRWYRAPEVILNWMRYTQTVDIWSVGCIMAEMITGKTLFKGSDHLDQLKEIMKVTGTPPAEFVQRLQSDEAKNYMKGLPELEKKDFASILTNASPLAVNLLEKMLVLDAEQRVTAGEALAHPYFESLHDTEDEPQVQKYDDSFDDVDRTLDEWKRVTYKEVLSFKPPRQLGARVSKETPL
Chain of Inhibitor of nuclear factor kappa-B kinase subunit alpha (Homo sapiens) (O15111 whole entry): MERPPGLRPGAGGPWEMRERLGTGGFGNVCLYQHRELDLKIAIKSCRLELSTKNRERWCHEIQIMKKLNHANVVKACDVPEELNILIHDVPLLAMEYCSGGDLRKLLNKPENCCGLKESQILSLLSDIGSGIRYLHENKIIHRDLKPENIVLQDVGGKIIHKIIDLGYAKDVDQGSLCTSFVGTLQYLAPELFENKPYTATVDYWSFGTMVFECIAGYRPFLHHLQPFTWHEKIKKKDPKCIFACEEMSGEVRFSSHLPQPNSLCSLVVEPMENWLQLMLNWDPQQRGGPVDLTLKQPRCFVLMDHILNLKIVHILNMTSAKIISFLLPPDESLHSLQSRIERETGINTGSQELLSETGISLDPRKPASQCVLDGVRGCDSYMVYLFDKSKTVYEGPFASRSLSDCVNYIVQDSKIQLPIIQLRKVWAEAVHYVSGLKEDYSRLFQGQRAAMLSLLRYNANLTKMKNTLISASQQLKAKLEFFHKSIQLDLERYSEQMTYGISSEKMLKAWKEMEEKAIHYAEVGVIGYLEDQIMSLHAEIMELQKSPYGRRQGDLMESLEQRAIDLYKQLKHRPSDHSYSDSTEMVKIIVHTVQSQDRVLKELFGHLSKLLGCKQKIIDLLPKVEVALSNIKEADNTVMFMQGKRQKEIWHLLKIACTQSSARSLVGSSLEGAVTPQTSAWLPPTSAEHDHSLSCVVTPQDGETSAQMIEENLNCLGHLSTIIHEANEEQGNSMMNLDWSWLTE

CC1=CC(=O)N(Nc2nc(-c3cccs3)nc3sccc23)C1=O
IC50 [1]: 6980 nM | IC50 [2]: Not Active | IC50 [3]: > 50000 nM | IC50 [4]: 8950 nM

O=C1c2ccncc2C(=O)N1Nc1ncnc2scc(-c3cccs3)c12
IC50 [1]: > 10000 nM | IC50 [5]: Not Active

CC1=CC(=O)N(Nc2nc(C3CC3)nc3scc(-c4cccs4)c23)C1=O
IC50 [1]: 3120 nM | IC50 [4]: 4350 nM

COc1cccc2nc(-c3cccs3)nc(NN3C(=O)C=C(C)C3=O)c12 [AS-602868]
IC50 [1]: 4410 nM | IC50 [4]: 3320 nM

CC1=CC(=O)N(Nc2nc(-c3cccs3)nc3scc(-c4cccc(O)c4)c23)C1=O
IC50 [6]: 488 nM | IC50 [1]: 1230 nM | IC50 [2]: Not Active | IC50 [4]: 2670 nM

CCOC(=O)Cc1csc2nc(-c3cccs3)nc(NN3C(=O)C=C(C)C3=O)c12
IC50 [6]: 673 nM | IC50 [1]: 5070 nM | IC50 [2]: Not Active | IC50 [3]: > 50000 nM | IC50 [4]: 5230 nM

CC1=CC(=O)N(Nc2nc(-c3ccncc3)nc3scc(-c4cccs4)c23)C1=O
IC50 [1]: 2110 nM | IC50 [4]: > 10000 nM

CC1=CC(=O)N(Nc2nc(-c3cccs3)nc3scc(-c4cccc(OCCN5CCCCC5)c4)c23)C1=O
Activity [7]: 99% | Activity [8]: 102% | IC50 [6]: 133 nM | Activity [9]: 4% | Activity [10]: 117% | IC50 [1]: 2150 nM | Activity [11]: 74% | Activity [12]: 87% | Activity [13]: 112% | Activity [14]: 81% | Activity [15]: 112% | Activity [16]: 103% | Activity [17]: 100% | Activity [18]: 100% | Activity [19]: 126% | IC50 [4]: 2920 nM | Activity [20]: 108% | Activity [21]: 98% | Activity [22]: 111% | Activity [23]: 96% | Activity [24]: 84% | Activity [25]: 96% | Activity [26]: 94% | Activity [27]: 96% | Activity [28]: 93%

CC1=CC(=O)N(Nc2nc(-c3cccs3)nc3scc(-c4cccc(OCCN5CCOCC5)c4)c23)C1=O
IC50 [6]: 540 nM | IC50 [1]: 3260 nM | IC50 [4]: 2380 nM | IC50 [29]: > 50000 nM

CC1=CC(=O)N(Nc2nc(-c3ccccc3)nc3scc(-c4cccs4)c23)C1=O
IC50 [1]: 3130 nM | IC50 [4]: 1130 nM

COc1cccc(-c2nc(NN3C(=O)C=C(C)C3=O)c3c(-c4cccs4)csc3n2)c1
IC50 [1]: 3470 nM | IC50 [4]: 1240 nM

CC1=CC(=O)N(Nc2nc(-c3cccs3)nc3scc(-c4ccccc4)c23)C1=O
Activity [7]: 109% | Activity [8]: 96% | IC50 [6]: 208 nM | Activity [9]: 8% | Activity [10]: 94% | IC50 [1]: 750 nM | Activity [11]: 86% | Activity [12]: 86% | Activity [13]: 113% | Activity [14]: 92% | IC50 [2]: Not Active | Activity [15]: 121% | Activity [16]: 98% | Activity [17]: 90% | IC50 [3]: > 50000 nM | Activity [18]: 76% | Activity [19]: 125% | IC50 [4]: 1290 nM | Activity [20]: 122% | Activity [21]: 119% | Activity [22]: 103% | Activity [23]: 99% | Activity [24]: 116% | Activity [25]: 99% | Activity [26]: 102% | Activity [27]: 92% | Activity [28]: 87%

CC1=CC(=O)N(Nc2nc(-c3cccs3)nc3scc(-c4cccc(OCCN(C)C)c4)c23)C1=O
IC50 [1]: 7540 nM | IC50 [3]: > 50000 nM | IC50 [4]: 9880 nM | IC50 [29]: > 50000 nM

CC1=CC(=O)N(Nc2nc(-c3cccs3)nc3scc(-c4cccs4)c23)C1=O
IC50 [1]: 2190 nM | IC50 [4]: 710 nM

CC1=C(C)C(=O)N(Nc2ncnc3scc(-c4cccs4)c23)C1=O
IC50 [1]: > 10000 nM | IC50 [5]: Not Active

CC1=CC(=O)N(Nc2nc(-c3cccs3)nc3scc(-c4ccc(OCCN5CCCCC5)cc4)c23)C1=O.Cl
IC50 [6]: 85 nM | IC50 [1]: 1680 nM | IC50 [2]: Not Active | IC50 [4]: 2140 nM

O=C1c2ccccc2C(=O)N1Nc1ncnc2scc(-c3cccs3)c12
IC50 [1]: > 10000 nM | IC50 [5]: Not Active

O=C1C=CC(=O)N1Nc1ncnc2scc(-c3cccs3)c12
IC50 [1]: > 10000 nM | IC50 [5]: Not Active

CC1=CC(=O)N(Nc2nc(-c3ccco3)nc3scc(-c4cccs4)c23)C1=O
IC50 [1]: 5250 nM | IC50 [4]: 3960 nM

CC1=CC(=O)N(Nc2nc(-c3cccs3)nc3scc(-c4ccc(O)cc4)c23)C1=O
IC50 [6]: 750 nM | IC50 [1]: 820 nM | IC50 [2]: Not Active | IC50 [4]: 1320 nM

COc1ccc(-c2nc(NN3C(=O)C=C(C)C3=O)c3c(-c4cccs4)csc3n2)cc1
IC50 [1]: 2790 nM | IC50 [4]: 1390 nM

CC1=CC(=O)N(Nc2ncnc3scc(-c4cccs4)c23)C1=O
IC50 [1]: 2490 nM | IC50 [4]: > 10000 nM
